# According to US9434724B2, “Quinuclidines for modulating alpha 7 activity” (priority 2014, dated 2016):
# Structures can show the parent of a compound that is named as a salt. Where two headings read alike, the source gives them in different places.
# Legend:
# [1] = target: Human α7 NAChR (Homo sapiens (Human), UniProt P36544); experiment: Electrophysiology screen at 1 μM in Xenopus laevis oocytes; format: cell-based; conditions: 1 μM test compound; Imax = maximal current produced by 3 mM ACh
# Procedure: Human α7 NAChR plasmid was prepared by GeneWiz from accession NM_000746.5. Human α7 NAChR mRNA was prepared by TriLink at a concentration near 1 μg/μL. The human α7 NAChR mRNA was diluted in sterile water to a working concentration near 10 ng/μL.
# Oocytes were obtained from Xenopus laevis frogs and treated with collagenase by Ecocyte Bioscience. Oocytes were injected with the working concentration of α7 NAChR mRNA at a volume of 50 nL for a total of approximately 0.5 ng of α7 NAChR mRNA. Oocytes were maintained in Barth's solution at a temperature of 16° C. The Barth's solution was replaced daily.
# Two-electrode voltage clamp recordings were made 3-14 days following mRNA injections at a holding voltage of −70 mV. The NAChR recordings were performed in Ca^++-free Ringer solution (115 mM NaCl, 2 mM KCl, 1.8 mM BaCl2, 5 mM HEPES; pH˜7.4) to limit Ca^++-activated chloride currents.
# In all oocyte recordings, drug and wash solutions were applied using a custom-designed microcapillary “linear array” which allows rapid application of agonists. Currents were recorded on a PC-based computer (PClamp, Molecular Devices, Sunnyvale, Calif.). Responses were reported as (I/Imax), where I is the amount of current given by a selected concentration of drug and Imax is the amount of maximal current produced by a 3 mM solution of ACh.
# Stocks of test compounds were prepared in DMSO. Test solutions in Ringer were prepared immediately before application of test compound (final DMSO concentration of 0.1%). The final concentration of test compound in the test solution was 1 μM. The test solution was perfused onto the oocyte until a peak current was recorded. There was approximately two minutes of wash time with only the Ringer solution between each application of agonist. Measurement of the test solution was repeated between 2 and 6 times with a two minute wash time between each application of test solution. An average of the currents for each test compound was used to define the response for the test compound.
# [2] = Metabolic stability assay in rat liver microsomes (RLM); format: in vitro ADME; conditions: 1 μM
# Procedure, shortened: (§1)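 In Protocol 1, compound was 1 μM final with NADPH at 37 °C, sampled at 0–45 min. In Protocol 2, 1.5 μM compound with 0.75 mg/mL microsomes (pre-NADPH mix) in 0.1 M potassium phosphate, 1 mM EDTA, pH 7.4 was pre-incubated 10 min, then NADPH started the reaction. Both: LC-MS/MS % remaining versus time 0, half-life from single-phase exponential fit.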
# [3] = Human plasma stability; format: in vitro ADME; conditions: plasma, 5 μM
# Procedure, shortened: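 Protocol 1: 1 μM compound in pH 7.4 sodium-heparin human plasma at 37° C, sampled 0–120 min. Protocol 2: 5 μM in plasma at pH 7.4–8.0, 37° C, duplicates, sampled 0–120 min. Both: LC-MS/MS percent remaining versus t0; half-life from single-phase exponential decay.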
# [4] = Metabolic stability assay in human liver microsomes (HLM); format: in vitro ADME; conditions: 1 μM
# Procedure, shortened: as §1
# [5] = target: T1, rat brain nicotinic receptor (α7 NAChR) (Rattus norvegicus (Rat), UniProt Q05941); format: binding; conditions: Protocol No. 2; [3H] α-Bungarotoxin 0.4 nM, rat brain P2 membrane
# T1 sequence (Q05941 23-502 limits assumed): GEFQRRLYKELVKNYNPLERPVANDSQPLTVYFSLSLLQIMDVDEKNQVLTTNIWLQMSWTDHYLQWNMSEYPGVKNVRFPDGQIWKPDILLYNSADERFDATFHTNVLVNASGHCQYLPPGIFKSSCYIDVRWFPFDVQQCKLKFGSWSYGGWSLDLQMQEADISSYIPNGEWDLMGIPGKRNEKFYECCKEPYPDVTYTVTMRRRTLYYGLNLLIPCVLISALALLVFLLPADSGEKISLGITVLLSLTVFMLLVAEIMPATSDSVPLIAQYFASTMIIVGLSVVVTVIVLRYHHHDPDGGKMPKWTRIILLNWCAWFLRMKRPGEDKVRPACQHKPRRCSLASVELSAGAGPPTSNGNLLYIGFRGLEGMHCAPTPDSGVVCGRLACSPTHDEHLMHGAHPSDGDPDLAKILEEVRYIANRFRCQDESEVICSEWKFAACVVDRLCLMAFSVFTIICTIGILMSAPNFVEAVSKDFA
# [6] = target: CYP2C19 (Homo sapiens (Human), UniProt P33261); conditions: microsomes, 45 min
# Sequence of CYP2C19 (P33261 whole entry): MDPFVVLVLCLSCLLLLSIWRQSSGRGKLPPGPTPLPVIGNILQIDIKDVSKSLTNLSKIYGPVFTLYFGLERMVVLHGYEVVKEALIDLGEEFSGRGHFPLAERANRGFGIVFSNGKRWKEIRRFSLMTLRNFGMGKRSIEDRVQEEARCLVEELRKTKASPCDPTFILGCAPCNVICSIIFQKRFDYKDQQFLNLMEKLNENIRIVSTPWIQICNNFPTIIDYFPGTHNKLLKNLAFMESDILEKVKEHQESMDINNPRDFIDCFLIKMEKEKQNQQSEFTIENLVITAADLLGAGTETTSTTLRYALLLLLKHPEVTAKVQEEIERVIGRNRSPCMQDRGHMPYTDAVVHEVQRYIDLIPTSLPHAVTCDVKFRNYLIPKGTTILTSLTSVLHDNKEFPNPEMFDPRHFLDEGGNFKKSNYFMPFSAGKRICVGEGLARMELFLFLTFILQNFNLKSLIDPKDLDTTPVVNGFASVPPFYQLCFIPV
# [7] = target: CYP2D6 (Homo sapiens (Human), UniProt P10635); experiment: Cytochrome P450 inhibition in human liver microsomes, CYP2D6; conditions: read-out: 2D6 IC50, Protocol 1
# Sequence of CYP2D6 (P10635 whole entry): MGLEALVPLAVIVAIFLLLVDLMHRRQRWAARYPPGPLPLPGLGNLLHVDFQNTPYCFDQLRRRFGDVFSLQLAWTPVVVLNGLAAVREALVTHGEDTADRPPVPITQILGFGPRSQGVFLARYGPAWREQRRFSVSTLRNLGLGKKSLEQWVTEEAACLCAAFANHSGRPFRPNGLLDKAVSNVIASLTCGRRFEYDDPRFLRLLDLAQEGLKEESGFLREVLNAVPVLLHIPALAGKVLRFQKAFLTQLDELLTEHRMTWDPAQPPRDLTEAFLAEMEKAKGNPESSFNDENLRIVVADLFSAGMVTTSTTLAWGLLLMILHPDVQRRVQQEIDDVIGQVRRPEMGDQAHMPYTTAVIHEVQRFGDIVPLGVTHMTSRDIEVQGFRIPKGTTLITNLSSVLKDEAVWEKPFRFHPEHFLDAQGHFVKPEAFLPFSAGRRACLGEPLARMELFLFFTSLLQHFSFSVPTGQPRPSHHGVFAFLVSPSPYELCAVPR
# [8] = target: CYP1A2 (Homo sapiens (Human), UniProt P05177); experiment: Cytochrome P450 inhibition in human liver microsomes, CYP1A2; conditions: read-out: 1A2 IC50, Protocol 1
# Sequence of CYP1A2 (P05177 whole entry): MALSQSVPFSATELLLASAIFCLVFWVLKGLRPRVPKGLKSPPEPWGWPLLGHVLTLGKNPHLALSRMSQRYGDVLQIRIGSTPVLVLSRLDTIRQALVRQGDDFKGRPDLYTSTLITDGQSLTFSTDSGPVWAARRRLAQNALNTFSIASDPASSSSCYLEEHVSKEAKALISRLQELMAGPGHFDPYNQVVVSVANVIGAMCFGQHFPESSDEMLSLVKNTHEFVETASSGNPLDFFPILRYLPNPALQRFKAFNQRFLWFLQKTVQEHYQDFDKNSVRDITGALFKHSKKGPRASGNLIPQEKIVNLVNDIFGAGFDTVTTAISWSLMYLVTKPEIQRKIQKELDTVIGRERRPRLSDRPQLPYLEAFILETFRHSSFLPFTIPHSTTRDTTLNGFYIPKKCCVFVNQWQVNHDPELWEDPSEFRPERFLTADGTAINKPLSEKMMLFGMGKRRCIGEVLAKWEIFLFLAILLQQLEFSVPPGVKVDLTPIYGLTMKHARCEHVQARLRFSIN
# [9] = target: CYP3A4 (Homo sapiens (Human), UniProt P08684); conditions: microsomes, 5 min
# Sequence of CYP3A4 (P08684 whole entry): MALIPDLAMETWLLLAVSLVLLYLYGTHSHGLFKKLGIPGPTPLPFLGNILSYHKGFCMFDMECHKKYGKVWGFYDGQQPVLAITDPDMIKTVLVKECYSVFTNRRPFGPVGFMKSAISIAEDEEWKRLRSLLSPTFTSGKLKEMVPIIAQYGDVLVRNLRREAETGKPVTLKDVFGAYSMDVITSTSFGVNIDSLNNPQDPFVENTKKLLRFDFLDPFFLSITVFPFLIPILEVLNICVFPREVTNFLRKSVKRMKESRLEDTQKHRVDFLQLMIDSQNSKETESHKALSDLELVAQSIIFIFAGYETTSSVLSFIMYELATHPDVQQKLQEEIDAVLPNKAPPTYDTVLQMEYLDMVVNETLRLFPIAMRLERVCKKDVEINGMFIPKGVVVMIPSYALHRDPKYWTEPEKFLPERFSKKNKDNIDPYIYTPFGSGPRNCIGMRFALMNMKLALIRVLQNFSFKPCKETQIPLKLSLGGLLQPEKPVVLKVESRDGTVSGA
# [10] = target: T1, rat brain nicotinic receptor (α7 NAChR); format: binding
# [11] = Protocol No. 1, rat liver microsomes
# [12] = Protocol No. 1, human liver microsomes
# Sequence of Human α7 NAChR (P36544 23-502 limits assumed): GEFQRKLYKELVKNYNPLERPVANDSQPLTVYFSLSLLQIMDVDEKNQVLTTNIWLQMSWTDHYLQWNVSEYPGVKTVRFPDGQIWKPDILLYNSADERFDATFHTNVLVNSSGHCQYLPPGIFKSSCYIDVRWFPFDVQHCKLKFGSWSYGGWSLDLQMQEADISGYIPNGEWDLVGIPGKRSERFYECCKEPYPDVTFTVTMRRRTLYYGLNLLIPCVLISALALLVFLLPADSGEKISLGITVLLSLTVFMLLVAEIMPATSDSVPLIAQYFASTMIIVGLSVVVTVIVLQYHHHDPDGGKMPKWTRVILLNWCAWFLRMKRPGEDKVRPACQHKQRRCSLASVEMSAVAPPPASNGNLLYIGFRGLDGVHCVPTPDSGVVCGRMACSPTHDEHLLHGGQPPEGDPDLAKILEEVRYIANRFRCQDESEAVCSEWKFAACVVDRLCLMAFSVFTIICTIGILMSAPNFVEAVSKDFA
Structure (SMILES),I/Imax [1],"RLM ([2]; rat, microsomes)","% Remaining @ 2 h ([3]; human, 2 h)","HLM ([4]; human, microsomes)",IC50 [5],Ki [5],IC50 [6],IC50 [7],IC50 [8],IC50 [9],IC50 [10],Ki [10],"RLM [2, 11]","% Remaining @ 2 h ([3]; Protocol No. 2, 37° C.)","HLM [4, 12]"
"COCCOc1ccc2[nH]cc(C(=O)OCC34CCN(CC3)CC4)c2c1C [Compound 91, quinuclidin-4-ylmethyl 5-(2-methoxyethoxy)-4-methyl-1H-indole-3-carboxylate]",0.205,235.4 mL/min/kg,81.12%,6.14 mL/min/kg,221 nM,859 nM,–,–,–,–,–,–,–,–,–
"Cc1cc(C#N)cc2[nH]cc(C(=O)OCC34CCN(CC3)CC4)c12 [Compound 60, quinuclidin-4-ylmethyl 6-cyano-4-methyl-1H-indole-3-carboxylate]",–,78.5875 mL/min/kg,89.46%,15.0953 mL/min/kg,–,–,> 10000 nM,> 10000 nM,> 10000 nM,> 10000 nM,474 nM,407 nM,–,–,–
"Cc1cc2[nH]cc(C(=O)OCC34CCN(CC3)CC4)c2cc1F [Compound 72, Quinuclidin-4-ylmethyl 5-fluoro-6-methyl-1H-indole-3-carboxylate hydrochloride]",0.347,–,–,–,–,–,–,–,–,–,145 nM,125 nM,339.452 mL/min/kg,70.78%,3.032 mL/min/kg
"Cl.O=C(OCC12CCN(CC1)CC2)c1c[nH]c2cccc(C(F)(F)F)c12 [Compound 80, Quinuclidin-4-ylmethyl 4-(trifluoromethyl)-1H-indole-3-carboxylate hydrochloride]",0.032,–,–,–,–,–,–,–,–,–,203 nM,176 nM,1443.16 mL/min/kg,81.31%,5.54 mL/min/kg
"Cc1ccc2[nH]cc(C(=O)OCC34CCN(CC3)CC4)c2c1Cl [Compound 63, quinuclidin-4-ylmethyl 4-chloro-5-methyl-1H-indole-3-carboxylate]",0.118,1465.43 mL/min/kg,74.47%,0.4623 mL/min/kg,–,–,–,–,–,–,117 nM,101 nM,–,–,–
"COc1cc(Cl)cc2[nH]cc(C(=O)OCC34CCN(CC3)CC4)c12.Cl [Compound 74, quinuclidin-4-ylmethyl 6-chloro-4-methoxy-1H-indole-3-carboxylate hydrochloride]",0.157,–,–,–,–,–,–,–,–,–,181 nM,154 nM,342.736 mL/min/kg,61.85%,9.6502 mL/min/kg
"Cc1cc2[nH]cc(C(=O)OCC34CCN(CC3)CC4)c2cc1C.Cl [Compound 73, Quinuclidin-4-ylmethyl 5,6-dimethyl-1H-indole-3-carboxylate hydrochloride]",0.367,–,–,–,–,–,–,–,–,–,168 nM,145 nM,766.779 mL/min/kg,41.93%,2.825 mL/min/kg
"COCCCOc1ccc2[nH]cc(C(=O)OCC34CCN(CC3)CC4)c2c1C [Compound 92, quinuclidin-4-ylmethyl 5-(3-methoxypropoxy)-4-methyl-1H-indole-3-carboxylate]",0.266,149.88 mL/min/kg,64.72%,10.37 mL/min/kg,76.1 nM,133 nM,–,–,–,–,–,–,–,–,–
"O=C(OCC12CCN(CC1)CC2)c1c[nH]c2ccc(F)c(Cl)c12 [Compound 62, quinuclidin-4-ylmethyl 4-chloro-5-fluoro-1H-indole-3-carboxylate hydrochloride]",0.171,498.991 mL/min/kg,74.02%,7.061 mL/min/kg,–,–,–,–,–,–,113 nM,97.6 nM,–,–,–
